# Measured values from US7282504B2, “Kinase inhibitors” (Amgen Inc., priority 2000, dated 2007).
# Key:
# Assay type in all cases: biochemical
# [1] = target: T1, Lck-2 (Homo sapiens, UniProt P06239); assay: Kinase inhibition, 33P transfer to plate-bound substrate: Lck-2
# T1 construct: Kinases are expressed as either kinase domains or full-length constructs; made in house
# Description: (§1) The inhibitor compounds described herein are screened in the following manner. Kinases suitable for use in the following protocol to determine kinase activity of the compounds described herein include, but are not limited to: Lck, Lyn, Src, Fyn, Syk, Zap-70, Itk, Tec, Btk, EGFR, ErbB2, Kdr, Flt-1, Flt-3, Tek, c-Met, InsR, and AKT.
# (§2) Kinases are expressed as either kinase domains or full-length constructs fused to glutathione S-transferase (GST) or polyHistidine tagged fusion proteins in either E. coli or Baculovirus-High Five expression systems. They are purified to near homogeneity by affinity chromatography essentially as previously described (Lehr et al., 1996; Gish et al., 1995). In some instances, kinases are co-expressed or mixed with purified or partially purified regulatory polypeptides prior to measurement of activity.
# (§3) Kinase activity and inhibition are measured essentially by established protocols (Braunwalder et al., 1996). Briefly, The transfer of ^33PO4 from ATP to the synthetic substrates poly(Glu, Tyr) 4:1 or poly(Arg, Ser) 3:1 attached to the bioactive surface of microtiter plates serves as the basis to evaluate enzyme activity. After an incubation period, the amount of phosphate transferred is measured by first washing the plate with 0.5% phosphoric acid, adding liquid scintillant, and then counting in a liquid scintillation detector. The IC50 is determined by the concentration of compound that causes a 50% reduction in the amount of ^33P incorporated onto the substrate bound to the plate.
# [2] = target: T2, Itk-1 (Homo sapiens, UniProt Q08881); assay: Kinase inhibition, 33P transfer to plate-bound substrate: Itk-1
# T2 construct: Kinases are expressed as either kinase domains or full-length constructs; made in house
# T2 sequence (Q08881 1-620): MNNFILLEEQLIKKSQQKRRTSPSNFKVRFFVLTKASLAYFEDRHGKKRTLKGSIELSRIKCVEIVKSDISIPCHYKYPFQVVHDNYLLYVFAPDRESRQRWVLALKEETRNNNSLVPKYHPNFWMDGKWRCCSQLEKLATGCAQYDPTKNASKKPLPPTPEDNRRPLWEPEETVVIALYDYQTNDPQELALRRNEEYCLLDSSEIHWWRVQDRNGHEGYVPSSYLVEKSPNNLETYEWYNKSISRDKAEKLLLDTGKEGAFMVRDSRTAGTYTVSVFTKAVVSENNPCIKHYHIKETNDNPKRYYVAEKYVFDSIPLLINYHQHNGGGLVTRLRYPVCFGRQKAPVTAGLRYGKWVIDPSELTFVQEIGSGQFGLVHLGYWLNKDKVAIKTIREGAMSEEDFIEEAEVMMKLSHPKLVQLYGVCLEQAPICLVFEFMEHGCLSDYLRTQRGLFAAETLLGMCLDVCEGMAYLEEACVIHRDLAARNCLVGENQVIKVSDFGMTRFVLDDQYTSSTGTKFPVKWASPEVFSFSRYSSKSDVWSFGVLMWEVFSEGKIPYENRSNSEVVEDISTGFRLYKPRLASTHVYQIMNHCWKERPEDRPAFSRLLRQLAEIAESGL
# Description: as §1, §2, §3
# [3] = target: T3, Met-1 (Homo sapiens, UniProt P08581); assay: Kinase inhibition, 33P transfer to plate-bound substrate: Met-1
# T3 construct: Kinases are expressed as either kinase domains or full-length constructs; made in house
# Description: as §1, §2, §3
# [4] = target: T4, EGFR-1 (Homo sapiens, UniProt P00533); assay: Kinase inhibition, 33P transfer to plate-bound substrate: EGFR-1
# T4 construct: Kinases are expressed as either kinase domains or full-length constructs; made in house
# Description: as §1, §2, §3
# [5] = target: T5, Lck-1 (Homo sapiens, UniProt P06239); assay: Kinase inhibition, 33P transfer to plate-bound substrate: Lck-1
# T5 construct: Kinases are expressed as either kinase domains or full-length constructs; made in house
# T5 sequence (P06239 whole entry, the tested form may be a part): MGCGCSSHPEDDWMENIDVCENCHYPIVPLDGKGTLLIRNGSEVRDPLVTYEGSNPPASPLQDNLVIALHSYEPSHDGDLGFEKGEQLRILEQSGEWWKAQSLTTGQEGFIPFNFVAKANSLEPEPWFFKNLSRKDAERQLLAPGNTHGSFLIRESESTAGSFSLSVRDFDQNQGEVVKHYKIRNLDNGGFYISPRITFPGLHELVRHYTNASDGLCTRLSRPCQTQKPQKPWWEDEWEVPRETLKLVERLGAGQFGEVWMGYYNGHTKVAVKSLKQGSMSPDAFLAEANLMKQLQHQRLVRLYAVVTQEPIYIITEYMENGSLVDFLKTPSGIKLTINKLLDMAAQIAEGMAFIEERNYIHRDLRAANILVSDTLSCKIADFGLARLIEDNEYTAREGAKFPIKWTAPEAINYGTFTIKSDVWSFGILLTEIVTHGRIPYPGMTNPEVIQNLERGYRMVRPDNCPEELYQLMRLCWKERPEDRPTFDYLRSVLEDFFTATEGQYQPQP
# Description: as §1, §2, §3
# [6] = target: T6, KDR-1 (Homo sapiens, UniProt P35968); assay: Kinase inhibition, 33P transfer to plate-bound substrate: KDR-1
# T6 construct: Kinases are expressed as either kinase domains or full-length constructs; made in house
# T6 sequence (P35968 20-1356): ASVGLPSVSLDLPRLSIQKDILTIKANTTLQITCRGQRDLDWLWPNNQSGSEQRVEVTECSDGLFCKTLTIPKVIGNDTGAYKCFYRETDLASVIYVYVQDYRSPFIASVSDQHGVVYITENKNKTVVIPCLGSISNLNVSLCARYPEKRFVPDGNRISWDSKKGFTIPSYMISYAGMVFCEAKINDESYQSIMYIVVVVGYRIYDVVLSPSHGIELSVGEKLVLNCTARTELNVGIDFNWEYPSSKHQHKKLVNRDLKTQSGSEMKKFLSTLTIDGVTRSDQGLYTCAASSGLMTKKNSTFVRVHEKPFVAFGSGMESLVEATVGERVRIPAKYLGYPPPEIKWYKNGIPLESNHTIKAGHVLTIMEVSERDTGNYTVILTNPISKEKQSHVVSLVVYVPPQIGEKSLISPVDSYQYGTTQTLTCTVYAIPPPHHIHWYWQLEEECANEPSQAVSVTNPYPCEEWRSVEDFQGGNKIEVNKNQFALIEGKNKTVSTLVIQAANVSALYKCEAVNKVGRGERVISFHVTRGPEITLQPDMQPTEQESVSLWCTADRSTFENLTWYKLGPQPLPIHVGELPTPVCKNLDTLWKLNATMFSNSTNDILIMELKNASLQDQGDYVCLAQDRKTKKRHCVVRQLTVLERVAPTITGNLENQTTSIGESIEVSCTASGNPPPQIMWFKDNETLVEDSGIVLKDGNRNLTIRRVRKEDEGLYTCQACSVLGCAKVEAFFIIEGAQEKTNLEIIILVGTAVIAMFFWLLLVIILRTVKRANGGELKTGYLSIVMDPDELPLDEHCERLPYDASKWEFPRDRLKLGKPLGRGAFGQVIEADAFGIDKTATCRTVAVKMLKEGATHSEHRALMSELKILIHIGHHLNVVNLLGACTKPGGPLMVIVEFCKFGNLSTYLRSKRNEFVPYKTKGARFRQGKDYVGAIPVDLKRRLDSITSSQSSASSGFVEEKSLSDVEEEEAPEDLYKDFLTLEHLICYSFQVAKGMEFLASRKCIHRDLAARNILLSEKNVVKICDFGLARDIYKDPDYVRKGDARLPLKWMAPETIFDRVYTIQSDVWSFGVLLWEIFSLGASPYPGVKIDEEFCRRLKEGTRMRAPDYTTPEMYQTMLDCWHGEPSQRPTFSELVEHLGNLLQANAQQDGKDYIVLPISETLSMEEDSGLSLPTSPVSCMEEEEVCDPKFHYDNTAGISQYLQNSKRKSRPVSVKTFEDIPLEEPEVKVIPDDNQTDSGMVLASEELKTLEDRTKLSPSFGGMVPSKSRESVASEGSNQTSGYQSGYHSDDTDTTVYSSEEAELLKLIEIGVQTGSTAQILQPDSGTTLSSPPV
# Description: as §1, §2, §3
# [7] = target: T7, ErbB2-1 (Homo sapiens, UniProt P04626); assay: Kinase inhibition, 33P transfer to plate-bound substrate: ErbB2-1
# T7 construct: Kinases are expressed as either kinase domains or full-length constructs; made in house
# Description: as §1, §2, §3
# [8] = target: T8, Akt3-1 (Homo sapiens, UniProt Q9Y243); assay: Kinase inhibition, 33P transfer to plate-bound substrate: Akt3-1
# T8 construct: Kinases are expressed as either kinase domains or full-length constructs; made in house
# T8 sequence (Q9Y243 whole entry, the tested form may be a part): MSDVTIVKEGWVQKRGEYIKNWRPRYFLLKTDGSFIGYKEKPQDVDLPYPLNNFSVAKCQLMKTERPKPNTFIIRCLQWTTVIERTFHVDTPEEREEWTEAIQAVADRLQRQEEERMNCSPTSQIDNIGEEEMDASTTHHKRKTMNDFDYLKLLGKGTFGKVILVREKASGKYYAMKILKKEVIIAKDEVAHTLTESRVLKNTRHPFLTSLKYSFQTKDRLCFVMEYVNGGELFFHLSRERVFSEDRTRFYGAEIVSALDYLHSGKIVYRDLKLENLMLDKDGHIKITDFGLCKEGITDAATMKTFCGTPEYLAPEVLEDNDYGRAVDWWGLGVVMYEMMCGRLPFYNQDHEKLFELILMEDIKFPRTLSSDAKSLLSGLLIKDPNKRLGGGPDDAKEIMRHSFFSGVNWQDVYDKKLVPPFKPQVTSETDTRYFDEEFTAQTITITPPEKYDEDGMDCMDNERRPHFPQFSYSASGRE
# Description: as §1, §2, §3
# [9] = target: T9, Zap-1 (Homo sapiens, UniProt P43403); assay: Kinase inhibition, 33P transfer to plate-bound substrate: Zap-1
# T9 construct: Kinases are expressed as either kinase domains or full-length constructs; made in house
# T9 sequence (P43403 1-619): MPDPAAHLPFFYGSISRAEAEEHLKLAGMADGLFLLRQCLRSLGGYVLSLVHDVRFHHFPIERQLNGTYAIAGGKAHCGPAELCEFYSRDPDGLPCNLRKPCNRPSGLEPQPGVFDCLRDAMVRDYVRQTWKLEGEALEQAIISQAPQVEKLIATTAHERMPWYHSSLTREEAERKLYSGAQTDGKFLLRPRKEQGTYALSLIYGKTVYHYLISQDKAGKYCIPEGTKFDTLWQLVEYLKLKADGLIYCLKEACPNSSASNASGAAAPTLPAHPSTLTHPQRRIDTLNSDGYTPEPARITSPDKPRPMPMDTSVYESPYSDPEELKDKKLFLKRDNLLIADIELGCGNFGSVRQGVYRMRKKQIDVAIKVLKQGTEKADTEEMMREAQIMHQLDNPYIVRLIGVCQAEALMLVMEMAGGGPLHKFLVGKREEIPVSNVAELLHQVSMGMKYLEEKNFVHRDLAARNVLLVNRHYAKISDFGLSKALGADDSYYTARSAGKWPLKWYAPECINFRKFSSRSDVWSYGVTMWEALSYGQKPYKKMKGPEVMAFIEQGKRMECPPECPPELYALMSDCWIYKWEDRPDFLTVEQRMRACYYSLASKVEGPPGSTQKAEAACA
# Description: as §1, §2, §3
# [10] = target: T10, IGFR-1 (Homo sapiens, UniProt P08069); assay: Kinase inhibition, 33P transfer to plate-bound substrate: IGFR-1
# T10 construct: Kinases are expressed as either kinase domains or full-length constructs; made in house
# T10 sequence (P08069 31-1367): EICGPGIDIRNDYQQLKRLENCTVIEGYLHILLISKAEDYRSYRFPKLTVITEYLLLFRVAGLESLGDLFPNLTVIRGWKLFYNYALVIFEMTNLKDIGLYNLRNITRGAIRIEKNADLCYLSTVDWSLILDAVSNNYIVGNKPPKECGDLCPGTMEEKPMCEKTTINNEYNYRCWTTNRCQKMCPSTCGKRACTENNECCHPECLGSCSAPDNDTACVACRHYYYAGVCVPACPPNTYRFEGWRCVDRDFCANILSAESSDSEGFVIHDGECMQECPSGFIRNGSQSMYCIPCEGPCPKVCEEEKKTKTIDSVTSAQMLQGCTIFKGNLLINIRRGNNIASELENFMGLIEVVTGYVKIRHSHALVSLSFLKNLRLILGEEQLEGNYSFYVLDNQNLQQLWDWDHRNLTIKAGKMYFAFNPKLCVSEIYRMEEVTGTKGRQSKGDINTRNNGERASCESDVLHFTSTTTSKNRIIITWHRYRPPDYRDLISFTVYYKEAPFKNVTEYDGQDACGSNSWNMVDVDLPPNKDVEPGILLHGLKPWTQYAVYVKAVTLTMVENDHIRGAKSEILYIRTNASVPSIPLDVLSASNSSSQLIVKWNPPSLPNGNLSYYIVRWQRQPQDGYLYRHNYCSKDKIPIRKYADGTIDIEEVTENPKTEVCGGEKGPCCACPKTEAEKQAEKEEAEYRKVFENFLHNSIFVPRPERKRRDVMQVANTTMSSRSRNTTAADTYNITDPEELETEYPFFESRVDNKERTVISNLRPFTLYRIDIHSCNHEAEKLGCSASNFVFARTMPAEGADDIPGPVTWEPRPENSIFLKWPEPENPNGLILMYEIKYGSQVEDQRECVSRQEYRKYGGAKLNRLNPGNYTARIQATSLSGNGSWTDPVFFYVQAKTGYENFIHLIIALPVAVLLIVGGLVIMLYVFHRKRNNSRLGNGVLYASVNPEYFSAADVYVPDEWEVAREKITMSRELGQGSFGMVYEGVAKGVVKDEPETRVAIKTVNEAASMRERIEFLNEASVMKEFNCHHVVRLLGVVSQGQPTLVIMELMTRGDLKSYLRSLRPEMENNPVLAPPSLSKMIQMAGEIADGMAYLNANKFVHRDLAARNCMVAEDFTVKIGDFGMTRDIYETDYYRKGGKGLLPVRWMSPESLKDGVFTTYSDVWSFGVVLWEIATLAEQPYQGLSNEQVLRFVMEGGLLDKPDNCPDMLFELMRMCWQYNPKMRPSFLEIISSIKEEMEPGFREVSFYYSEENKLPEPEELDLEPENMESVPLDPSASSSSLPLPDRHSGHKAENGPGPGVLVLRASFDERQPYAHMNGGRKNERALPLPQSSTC
# Description: as §1, §2, §3
# [11] = target: T11, PDGFRB (Homo sapiens, UniProt P09619); assay: Kinase inhibition, 33P transfer to plate-bound substrate: PDGFRB
# T11 construct: Kinases are expressed as either kinase domains or full-length constructs; made in house
# Description: as §1, §2, §3
# [12] = target: T12, Tek-1 (Homo sapiens, UniProt Q02763); assay: Kinase inhibition, 33P transfer to plate-bound substrate: Tek-1
# T12 construct: Kinases are expressed as either kinase domains or full-length constructs; made in house
# T12 sequence (Q02763 23-1124): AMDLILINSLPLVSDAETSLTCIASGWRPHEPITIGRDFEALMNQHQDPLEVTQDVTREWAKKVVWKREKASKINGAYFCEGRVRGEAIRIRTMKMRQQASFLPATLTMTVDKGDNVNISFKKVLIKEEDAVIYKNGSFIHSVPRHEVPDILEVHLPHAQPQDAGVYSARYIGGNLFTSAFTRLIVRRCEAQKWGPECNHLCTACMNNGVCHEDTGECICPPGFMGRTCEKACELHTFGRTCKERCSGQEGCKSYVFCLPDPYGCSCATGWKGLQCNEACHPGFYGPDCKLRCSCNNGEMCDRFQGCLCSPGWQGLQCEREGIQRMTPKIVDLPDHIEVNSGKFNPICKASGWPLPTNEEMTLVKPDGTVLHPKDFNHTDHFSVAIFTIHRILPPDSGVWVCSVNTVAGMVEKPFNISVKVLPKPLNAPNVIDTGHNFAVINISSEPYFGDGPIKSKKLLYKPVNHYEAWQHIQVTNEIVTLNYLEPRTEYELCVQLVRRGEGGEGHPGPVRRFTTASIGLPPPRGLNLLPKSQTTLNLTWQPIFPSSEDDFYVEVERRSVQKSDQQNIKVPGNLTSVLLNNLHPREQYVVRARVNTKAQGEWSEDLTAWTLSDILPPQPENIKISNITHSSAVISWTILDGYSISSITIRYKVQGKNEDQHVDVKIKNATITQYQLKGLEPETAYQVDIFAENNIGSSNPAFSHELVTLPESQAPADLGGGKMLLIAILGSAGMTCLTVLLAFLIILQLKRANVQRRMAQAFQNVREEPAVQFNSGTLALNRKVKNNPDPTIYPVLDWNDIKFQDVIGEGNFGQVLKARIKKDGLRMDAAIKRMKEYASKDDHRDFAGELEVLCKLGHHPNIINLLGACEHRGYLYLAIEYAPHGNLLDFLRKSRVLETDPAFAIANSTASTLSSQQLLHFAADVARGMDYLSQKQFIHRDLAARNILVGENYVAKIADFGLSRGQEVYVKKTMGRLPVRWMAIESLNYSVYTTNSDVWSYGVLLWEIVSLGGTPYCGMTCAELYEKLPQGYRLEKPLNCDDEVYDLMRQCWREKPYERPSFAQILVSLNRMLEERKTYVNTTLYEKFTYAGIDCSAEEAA
# Description: as §1, §2, §3
# T1 sequence (P06239 whole entry, the tested form may be a part): as the sequence (P06239 whole entry, the tested form may be a part) above
Structure (SMILES),IC50 [1] [µM],IC50 [2] [µM],IC50 [3] [µM],IC50 [4] [µM],IC50 [5] [µM],IC50 [6] [µM],IC50 [7] [µM],IC50 [8] [µM],IC50 [9] [µM],IC50 [10] [µM],IC50 [11] [µM],IC50 [12] [µM]
COc1cc(Nc2nccc(-n3ccc(-c4ccc(Cl)cc4)n3)n2)cc(OC)c1OC [Compound 33],≥ 10,≥ 10,≥ 10,≥ 10,≥ 10,≥ 10,≥ 10,≥ 10,5 to 10,≥ 10,≥ 10,
COc1cc(Nc2nccc(-n3c(=O)oc4ccccc43)n2)cc(OC)c1OC [Compound 25],≥ 10,≥ 10,≥ 10,≥ 10,≥ 10,≥ 10,≥ 10,≥ 10,≥ 10,≥ 10,≥ 10,≥ 10
COc1ccc(-c2ccn(-c3ccnc(Nc4cc(OC)c(OC)c(OC)c4)n3)n2)cc1 [Compound 34],≥ 10,≥ 10,≥ 10,5 to 10,≥ 10,≥ 10,≥ 10,≥ 10,5 to 10,≥ 10,≥ 10,
COc1cc(Nc2ccnc(-n3ccc4ccccc43)n2)cc(OC)c1OC [Compound 32],≥ 10,,≥ 10,≥ 10,≥ 10,5 to 10,,≥ 10,≥ 10,,,≥ 10

# Now those with a lower IC50 [1], led by results:
IC50 [1] [µM],IC50 [2] [µM],IC50 [3] [µM],IC50 [4] [µM],IC50 [5] [µM],IC50 [6] [µM],IC50 [7] [µM],IC50 [8] [µM],IC50 [9] [µM],IC50 [10] [µM],IC50 [11] [µM],IC50 [12] [µM],Structure (SMILES)
< 1.5,5 to 10,5 to 10,≥ 10,5 to 10,5 to 10,,,,,,,COc1cc(Nc2ccnc(Nc3ccc(OCc4ccccc4)cc3)n2)cc(OC)c1OC [Compound 58]
< 1.5,< 1.5,1.5 to 5,< 1.5,< 1.5,< 1.5,< 1.5,≥ 10,5 to 10,< 1.5,< 1.5,,COc1cc(Nc2nccc(Nc3ccc4c(cnn4Cc4ccccc4)c3)n2)cc(OC)c1OC [Compound 36]
1.5 to 5,5 to 10,5 to 10,≥ 10,5 to 10,5 to 10,,5 to 10,≥ 10,,,≥ 10,COc1cc(Nc2nccc(-n3c(N)nc4ccccc43)n2)cc(OC)c1OC [Compound 11]
